The compounds below were run on histamine H1-receptor (assay: inhibition of histamine induced bronchoconstriction in vivo). Settings: anaesthetised guinea pigs, intravenous injection, histamine dose-response curve 5 minutes later.
Set-up: species or system guinea pig
Experimental: Guinea pigs of either sex are anaesthetised by intraperitoneal injection of sodium pentobarbitone, 90 mg/kg. The trachea is cannulated. The animal is respired artificially with a fixed volume of air just adequate to inflate the lungs. The pressure needed to inflate the lungs is monitored from the respiratory system using a low pressure transducer. Intravenous injection of histamine causes dose-dependent increases in the pressure to inflate the lungs reflecting the bronchoconstrictor action of histamine. Responses to histamine can be antagonised using histamine H1 -receptor antagonists.
Dose-response curves to histamine are established at 20, 40, 80, 160 and 320 nmols/kg. Antagonists are then administered by intravenous injection and 5 minutes later a new histamine dose-response curve is established increasing the doses of histamine as necessary. The effect of the antagonist can be quantified by the displacement, to the right, of the histamine dose-response curve, expressed as a dose-ratio. A series of doses of antagonists may be given to each animal allowing calculation of dose-ratios for each dose of antagonist. For the compounds of Examples 1, 2 and 4, the doses (μmol/kg) required to give a dose ratio of 11 ((DR-1)=10) are 0.022, 0.06 and 0.0048 respectively.
For `O=c1nc(NCCCC2CCCc3cccnc32)[nH]cc1Cc1cc[n+]([O-])cc1` (stereo not drawn) [Example 1, 2-[3-(5,6,7,8-Tetrahydroquinol-8-yl)propylamino]-5-[1-oxopyrid-4-ylmethyl]-4(1H)-pyrimidone], the “dose required to give a dose ratio of 11 ((DR-1)=10)” value (“dose required to give a dose ratio” for short) was 0.022 µmol/kg.
With `Cc1ccc(Cc2c[nH]c(NCCCC3CCCc4cccnc43)nc2=O)cn1` (stereo not drawn) [Example 2, 2-[3-(5,6,7,8-Tetrahydroquinol-8-yl)propylamino]-5-(6-methylpyrid-3-ylmethyl)-4(1H)-pyrimidone] the “dose required to give a dose ratio” value was 0.06 µmol/kg.
`O=c1nc(NCCCC2CCCc3cccnc32)[nH]cc1Cc1ccc(CO)nc1` (stereo not drawn) [Example 4, 2-[3-(5,6,7,8-Tetrahydroquinol-8-yl)propylamino]-5-(6-hydroxymethylpyrid-3-ylmethyl)-4(1H)-pyrimidone] was tested, and the “dose required to give a dose ratio” value was 0.0048 µmol/kg.

From US4727076A, “Tetrahydroquinolinylalkyl amino pyridones and ring homologues thereof, useful as histamine-H1 -receptor antagonists” (Smith Kline & French Laboratories Ltd., priority 1986, dated 1988)
